Data taken from patent publication US10550080B2 (BRISTOL-MYERS SQUIBB COMPANY, priority 2016, dated 2020).
pIC50: −log10 of the molar value.

Legend:
NaV1.7 = NaV1.7 (Homo sapiens (Human), UniProt Q15858); experiment: Automated electrophysiology, IonWorks Barracuda population patch clamp, NaV1.7 current (inactivated-state protocol); format: cell-based; conditions: HEK 293 cells expressing NaV1.7; 600 sec compound incubation; read-out: NaV1.7 Barra IC50
Description: (§1) Automated Electrophysiology: Ion Works Barracuda population patch clamp (PPC). PPC measurements were performed using an IonWorks Barracuda instrument (Molecular Devices Corporation, Union City, Calif.) using either PatchPlate™ PPC substrates (Molecular Devices Corporation) with 64 apertures per well. The ability to average currents from 64 recordings from each well greatly improves data consistency and recording success rates in the measurement of NaV1.7 mediated ionic currents. Calculated leak current was digitally subtracted from the total cell NaV1.7 current for each sample point acquired.
(§2) NaV1.7 currents were elicited by a voltage clamp protocol designed to bias the NaV1.7 channels to their inactivated state as follows. From holding potential of −60 mV cells were briefly hyperpolarized to −100 mV for 1.25 sec, then stepped to −20 mV for 20 sec to inactivate the channels. This was followed by a relatively brief hyperpolarization to −100 mv for 300 ms, then a 20 msec test pulse to −20 mV to elicit the NaV1.7 current used to measure the pharmacology of all test compounds. Compounds were incubated for 600 sec between the pre- and post-compound reads. The external recording solution used was (in mM) 137 NaCl, 4 KCl, 1 MgCl2, 1.8 CaCl2, 10 Hepes, 10 glucose, pH to 7.4 with NaOH, and the internal solution used was (in mM) 100 K-gluconate, 40 KCl, 3.2 zMgCl2, 5 EGTA, 10 HEPES pH to 7.2 with KOH. The same solutions were used to record NaV1.5 currents, with the following voltage clamp protocol. NaV1.5 currents were elicited by a voltage clamp protocol designed to bias the NaV1.5 channels to their inactivated state as follows. From holding potential of −40 mV cells were briefly hyperpolarized to −100 mV for 300 ms, then stepped to −10 mV for 20 sec to inactivate the channels. This was followed by a relatively brief hyperpolarization to −100 mv for 30 ms, then a 20 msec test pulse to −10 mV to elicit the NaV1.5 current used to measure the pharmacology of all test compounds.
(§3) HEK 293 cells expressing NaV1.7 and NaV1.5 channels, were used (Essen Biosciences, Ann Arbor, Mich.). Cells were cultured in T-175 flasks and passaged every 2 to 3 days at 1:3 to 1:6 seeding density dilutions. Cells were grown to 70% to 90% confluence in a flask and removed from the incubator (37° C., 5% CO2) 1 to 3 days after plating. Growth medium was aspirated from the culture flasks. Cells were gently rinsed with 10 ml of PBS (Catalog number: 14190144, Gibco) to remove residual media. Next a total of 2 mL TrypLE (Gibco) solution was added, and the flasks containing cells were sat for 3 min at RT, after which, the cells became visibly rounded and were easily dislodged from the bottom of the flask with a few brief taps on a solid surface. A total of 8 mL of media was added to the flask to inactivate the TrypLE, and the mixture was centrifuged at 910 rpm for 4 min. The cell supernatant was decanted, and the cell pellets were resuspended in 5-6 mL of external solution followed by gentle triturations using a 10 ml pipette, and transferred to a 15 ml conical tube and immediately brought to the IW Barracuda instrument.
(§4) Peak membrane currents were analyzed with IW Barracuda software and exported to Excel for further analysis. Concentration response curve fitting was performed with BMS in-house software. IC50 values were obtained by fits of the Hill equation to the average percent inhibition data plotted versus compound concentration. […] Results are reported in Table 1 (NaV1.7 Barra IC50 in nM and NaV1.5 Barra IC50 in nM).

hNaV1.7 = hNaV1.7 (Homo sapiens (Human), UniProt Q15858); experiment: Ligand Binding Assay (LBA), radioligand displacement on hNaV1.7 HEK293 cell membranes; conditions: 0.5 nM [3H] radioligand, 24 hours at room temperature; read-out: NaV1.7 LBA IC50
Description: Ligand Binding Assay (LBA): hNaV1.7 binding affinities were determined with a filtration binding assay using purified membranes from HEK293 cells stably expressing hNaV1.7. HEK293 cells from a 10-stack cell culture flask (approximately 10^10 cells) were dissociated, frozen, and stored at −80° C. To prepare membranes, the frozen cell pellet was thawed and suspended in 6 ml hypotonic lysis buffer (50 mM HEPES, 0.1% mammalian protease inhibitor cocktail). 1 ml of resuspended cells was added to an additional 6 ml of lysis buffer and homogenized with 30 strokes of a tight pestle in a glass homogenizer. Homogenate was centrifuged at 1000×g for 10 minutes at 4° C. and the resulting supernatant was further centrifuged at 38,500×g for 60 minutes at 4° C. The resulting pellet was resuspended in binding buffer (50 mM HEPES, 130 mM NaCl, 5.4 mM KCl, 0.8 mM MgCl2, 5 mM glucose, pH 7.4) and needle homogenized with a 25 gauge needle. Protein concentration was determined with a BCA protein assay. Purified membranes were aliquoted, flash frozen in an ethyl alcohol dry ice bath, and stored at −80° C. To measure displacement of a radiolabeled ligand, 50 μg of purified hNaV1.7 HEK cell membranes were incubated with test compounds (eight concentrations, in duplicate) and 0.5 nM [3H] labeled radioligand in a 96 well plate for 24 hours at room temperature on a shaker. The total binding reaction volume was 250 μl, consisting of 200 μl purified hNaV1.7 HEK cell membranes, 25 μl test compound, and 25 μl radioligand. Non-specific binding was defined by 20 μM of a reference hNaV1.7 inhibitor. Binding reactions were terminated by filtration through GF/B filters presoaked in 0.5% polyethyleneamine. Filters were washed 5 times with 2 ml each of 4′C wash buffer (50 mM Tris-HCl, pH 7.4 at 4° C.). Bound radioactivity captured on the filters was counted on a liquid scintillation counter. Specific binding, expressed as % inhibition, was fit with Graphpad Prism software to determine binding IC50 values. Results are reported in Table 1 (NaV1.7 LBA IC50 in nM).

NaV1.5 = NaV1.5 (Homo sapiens (Human), UniProt Q14524); experiment: Automated electrophysiology, IonWorks Barracuda population patch clamp, NaV1.5 current (inactivated-state protocol); format: cell-based; conditions: HEK 293 cells expressing NaV1.5; read-out: NaV1.5 Barra IC50
Description: as §1, §2, §3, §4

Sequence of hNaV1.7 (Q15858 whole entry): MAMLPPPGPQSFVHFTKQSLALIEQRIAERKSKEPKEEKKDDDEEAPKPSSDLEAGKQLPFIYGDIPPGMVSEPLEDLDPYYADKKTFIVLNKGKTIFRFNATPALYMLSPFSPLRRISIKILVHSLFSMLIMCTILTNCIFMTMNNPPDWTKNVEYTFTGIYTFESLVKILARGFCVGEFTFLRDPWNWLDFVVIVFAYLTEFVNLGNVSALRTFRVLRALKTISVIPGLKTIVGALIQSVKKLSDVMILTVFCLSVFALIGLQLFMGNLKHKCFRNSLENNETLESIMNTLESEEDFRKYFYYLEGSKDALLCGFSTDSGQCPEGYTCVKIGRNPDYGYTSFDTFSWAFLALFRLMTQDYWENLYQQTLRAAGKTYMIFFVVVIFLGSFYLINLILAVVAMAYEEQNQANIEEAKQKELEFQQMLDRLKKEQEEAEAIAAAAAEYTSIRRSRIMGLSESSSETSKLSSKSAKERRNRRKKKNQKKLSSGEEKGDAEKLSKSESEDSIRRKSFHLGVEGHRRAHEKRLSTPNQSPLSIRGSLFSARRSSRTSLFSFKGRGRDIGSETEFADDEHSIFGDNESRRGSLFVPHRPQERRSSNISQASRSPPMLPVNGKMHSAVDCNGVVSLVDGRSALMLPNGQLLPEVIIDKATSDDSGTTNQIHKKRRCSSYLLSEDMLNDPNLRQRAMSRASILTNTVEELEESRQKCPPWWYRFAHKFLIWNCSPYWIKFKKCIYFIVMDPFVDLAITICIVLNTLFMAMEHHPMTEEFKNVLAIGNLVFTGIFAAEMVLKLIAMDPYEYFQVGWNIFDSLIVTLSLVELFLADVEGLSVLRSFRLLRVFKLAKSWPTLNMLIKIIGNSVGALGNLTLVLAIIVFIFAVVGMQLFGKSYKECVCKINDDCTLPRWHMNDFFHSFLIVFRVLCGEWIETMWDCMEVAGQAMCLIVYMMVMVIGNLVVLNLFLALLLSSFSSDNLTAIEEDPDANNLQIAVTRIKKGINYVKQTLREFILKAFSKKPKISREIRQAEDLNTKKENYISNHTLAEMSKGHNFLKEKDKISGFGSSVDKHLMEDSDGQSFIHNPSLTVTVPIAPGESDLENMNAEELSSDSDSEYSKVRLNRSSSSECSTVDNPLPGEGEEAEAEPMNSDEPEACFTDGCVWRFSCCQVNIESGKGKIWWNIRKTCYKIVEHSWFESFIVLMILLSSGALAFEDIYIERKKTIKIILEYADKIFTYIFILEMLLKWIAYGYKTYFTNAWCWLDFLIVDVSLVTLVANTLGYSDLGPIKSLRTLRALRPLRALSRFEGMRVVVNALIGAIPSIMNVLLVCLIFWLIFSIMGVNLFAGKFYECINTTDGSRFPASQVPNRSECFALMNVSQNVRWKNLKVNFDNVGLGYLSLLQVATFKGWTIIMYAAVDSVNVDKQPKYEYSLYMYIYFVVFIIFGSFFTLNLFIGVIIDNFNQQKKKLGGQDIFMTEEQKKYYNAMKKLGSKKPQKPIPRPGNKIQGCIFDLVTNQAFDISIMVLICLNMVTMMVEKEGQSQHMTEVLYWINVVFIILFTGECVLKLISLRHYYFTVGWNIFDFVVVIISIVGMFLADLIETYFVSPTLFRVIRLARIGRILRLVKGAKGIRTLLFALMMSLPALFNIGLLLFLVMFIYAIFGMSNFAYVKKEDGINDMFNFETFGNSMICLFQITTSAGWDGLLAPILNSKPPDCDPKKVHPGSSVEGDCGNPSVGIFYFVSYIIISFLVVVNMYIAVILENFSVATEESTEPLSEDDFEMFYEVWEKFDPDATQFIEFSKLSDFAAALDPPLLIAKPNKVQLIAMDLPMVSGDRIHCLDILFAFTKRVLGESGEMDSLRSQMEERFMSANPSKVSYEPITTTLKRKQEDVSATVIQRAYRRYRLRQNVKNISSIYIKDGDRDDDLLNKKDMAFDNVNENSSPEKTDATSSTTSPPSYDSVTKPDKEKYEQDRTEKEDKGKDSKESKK
Sequence of NaV1.7 (Q15858 whole entry): as above
Sequence of NaV1.5 (Q14524 whole entry): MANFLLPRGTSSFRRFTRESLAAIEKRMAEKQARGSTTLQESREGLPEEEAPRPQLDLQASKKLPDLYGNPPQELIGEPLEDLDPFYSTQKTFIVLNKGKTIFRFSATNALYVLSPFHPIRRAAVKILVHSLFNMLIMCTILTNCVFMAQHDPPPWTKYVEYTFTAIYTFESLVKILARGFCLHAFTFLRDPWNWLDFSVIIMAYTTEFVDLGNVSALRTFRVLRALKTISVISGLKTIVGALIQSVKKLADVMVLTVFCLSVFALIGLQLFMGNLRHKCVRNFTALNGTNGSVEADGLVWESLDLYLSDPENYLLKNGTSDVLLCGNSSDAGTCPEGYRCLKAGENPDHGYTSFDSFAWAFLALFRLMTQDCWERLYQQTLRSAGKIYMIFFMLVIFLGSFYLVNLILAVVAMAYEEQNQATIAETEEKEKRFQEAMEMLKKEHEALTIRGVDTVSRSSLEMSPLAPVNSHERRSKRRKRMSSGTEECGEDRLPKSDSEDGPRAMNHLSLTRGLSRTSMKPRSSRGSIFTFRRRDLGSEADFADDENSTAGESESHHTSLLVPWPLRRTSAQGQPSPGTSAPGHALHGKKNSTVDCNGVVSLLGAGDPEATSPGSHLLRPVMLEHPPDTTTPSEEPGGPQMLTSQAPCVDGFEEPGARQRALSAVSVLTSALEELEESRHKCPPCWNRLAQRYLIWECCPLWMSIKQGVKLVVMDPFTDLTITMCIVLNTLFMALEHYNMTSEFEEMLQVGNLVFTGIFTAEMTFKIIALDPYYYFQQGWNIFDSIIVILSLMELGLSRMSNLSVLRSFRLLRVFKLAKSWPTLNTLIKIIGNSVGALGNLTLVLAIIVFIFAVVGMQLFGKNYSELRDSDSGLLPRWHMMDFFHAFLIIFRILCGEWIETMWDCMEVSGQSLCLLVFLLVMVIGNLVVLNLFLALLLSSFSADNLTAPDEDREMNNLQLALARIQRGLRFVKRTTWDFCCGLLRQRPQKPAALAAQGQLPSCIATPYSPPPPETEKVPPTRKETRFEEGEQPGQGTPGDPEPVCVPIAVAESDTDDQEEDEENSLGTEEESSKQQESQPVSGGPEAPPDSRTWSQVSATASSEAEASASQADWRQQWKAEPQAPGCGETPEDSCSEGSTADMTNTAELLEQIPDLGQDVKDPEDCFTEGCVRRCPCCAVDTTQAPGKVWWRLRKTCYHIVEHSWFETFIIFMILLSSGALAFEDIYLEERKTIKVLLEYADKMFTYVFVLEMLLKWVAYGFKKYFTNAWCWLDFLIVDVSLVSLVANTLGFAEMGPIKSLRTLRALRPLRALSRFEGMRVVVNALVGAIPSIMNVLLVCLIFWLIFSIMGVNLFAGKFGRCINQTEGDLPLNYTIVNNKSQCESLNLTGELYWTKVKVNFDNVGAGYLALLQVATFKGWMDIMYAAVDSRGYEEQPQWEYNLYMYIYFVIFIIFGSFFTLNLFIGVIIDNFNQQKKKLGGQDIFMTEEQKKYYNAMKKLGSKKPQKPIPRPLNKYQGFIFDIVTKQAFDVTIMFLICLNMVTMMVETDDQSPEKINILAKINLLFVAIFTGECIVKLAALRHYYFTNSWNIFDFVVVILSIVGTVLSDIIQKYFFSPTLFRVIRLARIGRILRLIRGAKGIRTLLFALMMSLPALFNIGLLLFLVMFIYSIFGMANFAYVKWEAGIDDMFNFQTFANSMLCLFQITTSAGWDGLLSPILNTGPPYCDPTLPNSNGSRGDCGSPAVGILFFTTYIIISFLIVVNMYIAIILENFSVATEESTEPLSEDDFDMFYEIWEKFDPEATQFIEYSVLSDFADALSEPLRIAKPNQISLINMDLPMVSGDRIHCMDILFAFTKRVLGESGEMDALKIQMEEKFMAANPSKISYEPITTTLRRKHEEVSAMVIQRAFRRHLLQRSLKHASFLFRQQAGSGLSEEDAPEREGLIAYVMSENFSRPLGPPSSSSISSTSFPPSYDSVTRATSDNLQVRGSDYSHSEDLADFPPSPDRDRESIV

Row | Compound | pIC50 (NaV1.7) | pIC50 (hNaV1.7) | pIC50 (NaV1.5)
1 | CC(C)COc1ncc(-c2c3ccc(C(=O)NS(C)(=O)=O)cc3nn2C)cc1Cl [Example 40, 3-(5-Chloro-6-isobutoxypyridin-3-yl)-2-methyl-N-(methylsulfonyl)-2H-indazole-6-carboxamide] | 6.10 | 5.70 | 4.78
2 | Cn1cc(-c2ccccc2)c2ccc(C(=O)NS(C)(=O)=O)cc21 [Example 5, 1-Methyl-N-(methylsulfonyl)-3-phenyl-1H-indole-6-carboxamide] | 6.13 | 5.14 | < 4.52
3 | CC(C)COc1ncc(-c2cn(CC(C)C)c3cc(C(=O)NS(C)(=O)=O)ccc23)cc1Cl [Example 27, 3-(5-Chloro-6-isobutoxypyridin-3-yl)-1-isobutyl-N-(methylsulfonyl)-1H-indole-6-carboxamide] | 5.48 | – | 4.63
4 | Cn1cc(-c2ccc(C(F)(F)F)cc2)c2cc(F)c(C(=O)NS(C)(=O)=O)cc21 [Example 46, 5-Fluoro-1-methyl-N-(methylsulfonyl)-3-(4-(trifluoromethyl)phenyl)-1H-indole-6-carboxamide] | 7.31 | 7.08 | < 4.52
5 | CN(C)S(=O)(=O)NC(=O)c1ccc2c(-c3ccc(C(F)(F)F)cc3)cn(C)c2c1 [Example 33] | 5.72 | – | 4.61
6 | CC(C)COc1ncc(-c2c3ccc(C(=O)NS(=O)(=O)C4CC4)cc3nn2C)cc1Cl [Example 41, 3-(5-Chloro-6-isobutoxypyridin-3-yl)-N-(cyclopropylsulfonyl)-2-methyl-2H-indazole-6-carboxamide] | 6.71 | 6.17 | 4.95
7 | Cn1cc(-c2ccc(C(F)F)cc2)c2ccc(C(=O)NS(C)(=O)=O)cc21 [Example 30, 3-(4-(Difluoromethyl)phenyl)-1-methyl-N-(methylsulfonyl)-1H-indole-6-carboxamide] | 6.58 | 6.00 | < 4.52
8 | CC(C)COc1ncc(-c2cn(C)c3cc(C(=O)NS(C)(=O)=O)c(F)cc23)cc1Cl [Example 42, 3-(5-Chloro-6-isobutoxypyridin-3-yl)-5-fluoro-1-methyl-N-(methylsulfonyl)-1H-indole-6-carboxamide] | 6.28 | 7.96 | 5.14
9 | Cn1cc(-c2cccnc2)c2ccc(C(=O)NS(C)(=O)=O)cc21 [Example 8, 1-Methyl-N-(methylsulfonyl)-3-(pyridin-3-yl)-1H-indole-6-carboxamide] | < 4.52 | – | –
10 | Cn1cc(-c2ccc(C(F)(F)F)cc2)c2cc(F)c(C(=O)NS(=O)(=O)C3CC3)cc21 [Example 47] | 7.80 | 7.41 | 5.42
11 | CC(C)COc1ccc(-c2cn(C)c3cc(C(=O)NS(=O)(=O)C4CC4)c(F)cc23)cn1 [Example 45, N-(Cyclopropylsulfonyl)-5-fluoro-3-(6-isobutoxypyridin-3-yl)-1-methyl-1H-indole-6-carboxamide] | 7.23 | 7.59 | 5.43
12 | Cc1cccc(-c2cn(C)c3cc(C(=O)NS(C)(=O)=O)ccc23)c1 [Example 15, 1-Methyl-N-(methylsulfonyl)-3-(m-tolyl)-1H-indole-6-carboxamide] | 6.43 | 6.03 | < 4.52
13 | Cn1cc(-c2ccc(C(F)(F)F)cc2)c2ccc(C(=O)NS(=O)(=O)C(F)(F)F)cc21 [Example 19, 1-Methyl-3-(4-(trifluoromethyl)phenyl)-N-((trifluoromethyl)sulfonyl)-1H-indole-6-carboxamide] | 6.09 | 5.97 | 5.13
14 | CC(C)COc1ncc(-c2cn(C)c3cc(C(=O)NS(=O)(=O)C(C)(C)C)ccc23)cc1Cl [Example 38, N-(tert-butylsulfonyl)-3-(5-chloro-6-isobutoxypyridin-3-yl)-1-methyl-1H-indole-6-carboxamide] | 5.89 | 6.81 | 4.66
15 | CCOc1ncc(-c2cn(C)c3cc(C(=O)NS(C)(=O)=O)ccc23)cn1 [Example 9, 3-(2-Ethoxypyrimidin-5-yl)-1-methyl-N-(methylsulfonyl)-1H-indole-6-carboxamide] | < 4.52 | < 4.70 | < 4.52
16 | CC(C)COc1ccc(-c2cn(C)c3cc(C(=O)NS(C)(=O)=O)ccc23)cc1 [Example 22, 3-(4-Isobutoxyphenyl)-1-methyl-N-(methylsulfonyl)-1H-indole-6-carboxamide] | 6.28 | 6.56 | –
17 | CN(C)S(=O)(=O)NC(=O)c1ccc2c(-c3ccc(C(F)F)cc3)cn(C)c2c1 [Example 32, 3-(4-(Difluoromethyl)phenyl)-N—(N,N-dimethylsulfamoyl)-1-methyl-1H-indole-6-carboxamide] | 5.72 | – | < 4.52
18 | Cn1cc(-c2cncc(F)c2)c2ccc(C(=O)NS(C)(=O)=O)cc21 [Example 7, 3-(5-Fluoropyridin-3-yl)-1-methyl-N-(methylsulfonyl)-1H-indole-6-carboxamide] | < 4.52 | – | < 4.52
19 | CC(C)COc1ncc(-c2cn(C)c3cc(C(=O)NS(=O)(=O)N(C)C)ccc23)cc1Cl [Example 25, 3-(5-Chloro-6-isobutoxypyridin-3-yl)-N—(N,N-dimethylsulfamoyl)-1-methyl-1H-indole-6-carboxamide] | 5.89 | – | 5.20
20 | CC(C)COc1ncc(-c2cn(CC(C)C)c3cc(C(=O)NS(=O)(=O)C4CC4)ccc23)cc1Cl [Example 28, 3-(5-Chloro-6-isobutoxypyridin-3-yl)-N-(cyclopropylsulfonyl)-1-isobutyl-1H-indole-6-carboxamide] | 5.09 | – | 4.95
21 | CC(C)COc1ncc(-c2cn(C)c3cc(C(=O)NS(=O)(=O)N4CCCCC4)ccc23)cc1Cl [Example 26, 3-(5-Chloro-6-isobutoxypyridin-3-yl)-1-methyl-N-(piperidin-1-ylsulfonyl)-1H-indole-6-carboxamide] | 5.38 | – | 5.06
